# Measurements published in patent US20050238732A1, “Carbonated germicide with pressure control” (priority 2003, published 2005).
# Like-named read-outs stand apart in the source and are kept apart here.
# Legend:
# Bacillus subtilis spores [1] = experiment: Spore suspension test, killing of Bacillus subtilis spores; type: cell-based; conditions: for Log Reduction/mL (3 hr, 20° C., pH = 8): Table 4B; for Log Reduction/mL (20° C., 4 hrs): [NaHCO3], 0 mM
# Mycobacterium bovis BCG = conditions: at least 0.25% by weight phthalaldehyde as the sole active ingredient, 20° C.; cited from earlier work
# [2] = cited from earlier work
# [3] = Storage stability of phthalaldehyde solution (loss by Cannizzaro reaction); type: physicochemical; conditions: stored about 11 weeks
# Source text: Overall, the Cannizzaro reaction generally leads to loss of phthalaldehyde and a decrease in the germicidal efficacy of the solution. While a pH of from 6 to 10, or 7.5 to 9 generally enhances the efficacy of the phthalaldehyde-carbonate solution, the higher or alkaline pH also generally promotes the Cannizzaro reaction. […] However, about 14% of the phthalaldehyde may be lost if the same solution is stored for about 11 weeks at a pH of 9, at room temperature. Even more of the phthalaldehyde may be converted if the storage period is longer, if the temperature is higher, or if the pH is higher than 9.
# [4] = tested on: Clostridium sporogenes spores; conditions: cited from earlier work
# [5] = pH range of 3 to 9, single component, per the '999 patent; cited from earlier work
# Bacillus subtilis spores [6] = conditions: cited from earlier work
# [7] = Protocol: A 100 mL round-bottom flask having a capacity of about 135 mL was equipped with a septum, a stirrer bar, and a pressure sensor. […] About 65 mL of a bicarbonate solution having a particular concentration and pH was injected into the flask. Excess pressure was released through a needle on the septum. Carbon dioxide was sparged through the solution to obtain the listed pH and then the solution was sealed in the container with a stopper. The solution was stirred at a temperature of about 20° C. until a stable pressure was achieved. The procedure was repeated for other air partial pressures and bicarbonate solutions. The experiments were conducted at sea level.
# [8] = CO2 in headspace
# Protocol: (§1) Experiments were conducted to determine the pressures of several bicarbonate solutions with different bicarbonate concentration, starting pH, and at different temperatures, with air initially in the headspace of the container. Several bicarbonate solutions of different concentration were prepared. The pH of the solutions were adjusted by sparging the solutions with carbon dioxide to achieve a starting pH. About 1030 mL of each solution was introduced into a different 1145 mL glass bottle that was equipped with a thermometer and a pressure sensor. The headspace of each bottle was flushed with air for about one minute and then the bottle was sealed with a stopper. […] The solutions were stirred at about 20° C. until all pressures stabilized. The pressures were recorded. The solutions were then heated in a water bath to 40° C., and then to 55° C., and the pressures were recorded at each of these temperatures. The experiments were conducted at sea level.
# Experiments were conducted to determine the pressures of sealed containers including bicarbonate solutions when the air initially present in the headspace of the containers was replaced with carbon dioxide. […] The experiments were conducted at sea level.
# [9] = Air in headspace
# Protocol: as §1
# [10] = Table 2, 20° C., 4 hr exposure, no pH control
# [11] = Table 2, 20° C., 24 hr exposure, no pH control
# [12] = Table 3, 20° C., 24 hr exposure, no pH control
# [13] = Table 3, 20° C., 8 hr exposure, no pH control
# [14] = Table 1, 20° C., 8 hr exposure, no pH control
# [15] = Table 2, 20° C., 8 hr exposure, no pH control
# [16] = 0.25% phthalaldehyde as the sole active ingredient, 20° C.
smiles,measurement,setting,value
"[Br-].[Na+] [1000 mM NaBr, sodium bromide]",Log Reduction/mL (20° C.) 4 hr,Bacillus subtilis spores [1]; [10],0.0
same,Log Reduction/mL (20° C.) 24 hr,Bacillus subtilis spores [1]; [11],0.1
"[F-].[Li+] [100 mM LiF, lithium fluoride]",Log Reduction/mL (20° C.) 24 hr,Bacillus subtilis spores [1]; [12],0.0
"[F-].[K+] [1000 mM KF, potassium fluoride]",Log Reduction/mL (20° C.) 8 hr,Bacillus subtilis spores [1]; [13],0.0
same,Log Reduction/mL (20° C.) 24 hr,Bacillus subtilis spores [1]; [12],0.1
same,"Log Reduction/mL (3 hr, 20° C., pH = 8)",Bacillus subtilis spores [1]; 20° C.,0
"[F-].[Na+] [1000 mM NaF, sodium fluoride]",Log Reduction/mL (20° C.) 8 hr,Bacillus subtilis spores [1]; [14],0.0
same,Log Reduction/mL (20° C.) 8 hr,Bacillus subtilis spores [1]; [15],0.0
same,Log Reduction/mL (20° C.) 24 hr,Bacillus subtilis spores [1]; [11],0.0
"[Cl-].[Na+] [1000 mM NaCl, sodium chloride]",Log Reduction/mL (20° C.) 24 hr,Bacillus subtilis spores [1]; [11],0.2
"O=Cc1ccccc1C=O [0.3% OPA, 1,2-benzenedicarboxaldehyde]",time to kill all Mycobacterium bovis BCG in contact with the composition,Mycobacterium bovis BCG,≤ 10 min
same,Log Reduction/mL (20° C.) 4 hr,"Bacillus subtilis spores [1]; Table 1, 20° C., 4 hr exposure, no pH control",0.5
same,Log Reduction/mL (20° C.) 8 hr,Bacillus subtilis spores [1]; [14],0.6
same,Log Reduction/mL (20° C.) 24 hr,"Bacillus subtilis spores [1]; Table 1, 20° C., 24 hr exposure, no pH control",2.9
same,Log Reduction/mL (20° C.) 8 hr,Bacillus subtilis spores [1]; [15],~0.6
same,Log Reduction/mL (20° C.) 8 hr,Bacillus subtilis spores [1]; [13],~0.6
same,Log Reduction/mL (20° C.) 24 hr,Bacillus subtilis spores [1]; [12],~2.9
same,Log Reduction/mL (20° C.) 4 hr,"Bacillus subtilis spores [1]; Table 4A, pH 7.0, 20° C., 4 hr",0.5
same,Log Reduction/mL (20° C.) 8 hr,"Bacillus subtilis spores [1]; Table 4A, pH 7.0, 20° C., 8 hr",0.6
same,Log Reduction/mL (20° C.) 24 hr,"Bacillus subtilis spores [1]; Table 4A, pH 7.0, 20° C., 24 hr",2.9
same,Log Reductions/mL (20° C.) 2 hr,"Bacillus subtilis spores [1]; Table 7, 20° C., 2 hr",0.4
same,Log Reductions/mL (20° C.) 4 hr,"Bacillus subtilis spores [1]; Table 7, 20° C., 4 hr",0.5
same,Log Reductions/mL (20° C.) 6 hr,"Bacillus subtilis spores [1]; Table 7, 20° C., 6 hr",0.7
same,Log Reductions/mL (20° C.) 8 hr,"Bacillus subtilis spores [1]; Table 7, 20° C., 8 hr",0.6
same,Log Reductions/mL (20° C.) 24 hr,"Bacillus subtilis spores [1]; Table 7, 20° C., 24 hr",2.9
same,Log Reductions/mL (20° C.) 4 hr,"Bacillus subtilis spores [1]; Table 10, 20° C., 4 hr",1.5
same,Log Reductions/mL (20° C.) 24 hr,"Bacillus subtilis spores [1]; Table 10, 20° C., 24 hr",2.9
same,"Log Reduction/mL (20° C., 4 hrs)","Bacillus subtilis spores [1]; Table 13, 20° C.",0.5
same,"Log Reduction/mL (20° C., 4 hrs)","Bacillus subtilis spores [1]; Table 14, 20° C.",0.5
same,"Log Reduction/mL (20° C., 4 hrs)","Bacillus subtilis spores [1]; Table 15, 20° C.",0.5
same,solubility in water,[2],about 5 % by weight
same,loss of phthalaldehyde on storage,"[3]; pH of 7 or lower, room temperature to about 40° C.",without a noticeable loss
same,phthalaldehyde lost on storage,"[3]; pH of 9, room temperature",about 14%
same,time for sporicidal activity,[4]; [16],24 h
same,time in which sterilization is achieved,[4]; 1.0% phthalaldehyde,10 h
same,stability of compositions containing phthalaldehyde,[5],excellent stability
same,time for sporicidal activity,Bacillus subtilis spores [6]; [16],24 h
same,time in which sterilization is achieved,Bacillus subtilis spores [6]; 1.0% phthalaldehyde,10 h
"[I-].[Na+] [1000 mM Nal, sodium iodide]",Log Reduction/mL (20° C.) 4 hr,Bacillus subtilis spores [1]; [10],0.0
same,Log Reduction/mL (20° C.) 8 hr,Bacillus subtilis spores [1]; [15],0.0
same,Log Reduction/mL (20° C.) 24 hr,Bacillus subtilis spores [1]; [11],0.1
"O=C([O-])O.[Na+] [NaHCO3, sodium bicarbonate]",Final Pressure at Equilibrium (mmHg),"[7]; initial air 440 / CO2 320 mmHg, NaHCO3 0.3 mole/L, pH 7.4, about 20° C.",758 mmHg
same,Final Pressure at Equilibrium (mmHg),"[7]; initial air 674 / CO2 86 mmHg, NaHCO3 0.3 mole/L, pH 8.0, about 20° C.",760 mmHg
same,Final Pressure at Equilibrium (mmHg),"[7]; initial air 726 / CO2 34 mmHg, NaHCO3 0.05 mole/L, pH 8.0, about 20° C.",756 mmHg
same,Final Pressure at Equilibrium (mmHg),"[7]; initial air 740 / CO2 20 mmHg, NaHCO3 0.05 mole/L, pH 7.4, about 20° C.",758 mmHg
same,Pressure Below (−) or Above (+) Atmospheric Pressure (mmHg) 20° C.,"[8]; pH 7.2, [NaHCO3] 0.3M",−158 mmHg
same,Pressure Below (−) or Above (+) Atmospheric Pressure (mmHg) 40° C.,"[8]; pH 7.2, [NaHCO3] 0.3M",202 mmHg
same,Pressure Below (−) or Above (+) Atmospheric Pressure (mmHg) 55° C.,"[8]; pH 7.2, [NaHCO3] 0.3M",532 mmHg
same,Pressure Below (−) or Above (+) Atmospheric Pressure (mmHg) 20° C.,"[8]; pH 7.3, [NaHCO3] 0.02M",−508 mmHg
same,Pressure Below (−) or Above (+) Atmospheric Pressure (mmHg) 40° C.,"[8]; pH 7.3, [NaHCO3] 0.02M",−348 mmHg
same,Pressure Below (−) or Above (+) Atmospheric Pressure (mmHg) 55° C.,"[8]; pH 7.3, [NaHCO3] 0.02M",−202 mmHg
same,Pressure Below (−) or Above (+) Atmospheric Pressure (mmHg) 20° C.,"[8]; pH 7.4, [NaHCO3] 0.3M",−290 mmHg
same,Pressure Below (−) or Above (+) Atmospheric Pressure (mmHg) 40° C.,"[8]; pH 7.4, [NaHCO3] 0.3M",0 mmHg
same,Pressure Below (−) or Above (+) Atmospheric Pressure (mmHg) 55° C.,"[8]; pH 7.4, [NaHCO3] 0.3M",274 mmHg
same,Pressure Below (−) or Above (+) Atmospheric Pressure (mmHg) 20° C.,"[8]; pH 7.8, [NaHCO3] 0.3M",−440 mmHg
same,Pressure Below (−) or Above (+) Atmospheric Pressure (mmHg) 40° C.,"[8]; pH 7.8, [NaHCO3] 0.3M",−246 mmHg
same,Pressure Below (−) or Above (+) Atmospheric Pressure (mmHg) 55° C.,"[8]; pH 7.8, [NaHCO3] 0.3M",−50 mmHg
same,Pressure Above Atmospheric Pressure (mmHg) 20° C.,"[9]; pH 7.3, [NaHCO3] 0.02M",72 mmHg
same,Pressure Above Atmospheric Pressure (mmHg) 40° C.,"[9]; pH 7.3, [NaHCO3] 0.02M",208 mmHg
same,Pressure Above Atmospheric Pressure (mmHg) 55° C.,"[9]; pH 7.3, [NaHCO3] 0.02M",378 mmHg
same,Pressure Above Atmospheric Pressure (mmHg) 20° C.,"[9]; pH 7.4, [NaHCO3] 0.3M",250 mmHg
same,Pressure Above Atmospheric Pressure (mmHg) 40° C.,"[9]; pH 7.4, [NaHCO3] 0.3M",570 mmHg
same,Pressure Above Atmospheric Pressure (mmHg) 55° C.,"[9]; pH 7.4, [NaHCO3] 0.3M",862 mmHg
same,Pressure Above Atmospheric Pressure (mmHg) 20° C.,"[9]; pH 7.8, [NaHCO3] 0.3M",134 mmHg
same,Pressure Above Atmospheric Pressure (mmHg) 40° C.,"[9]; pH 7.8, [NaHCO3] 0.3M",322 mmHg
same,Pressure Above Atmospheric Pressure (mmHg) 55° C.,"[9]; pH 7.8, [NaHCO3] 0.3M",542 mmHg
"[I-].[K+] [1000 mM KI, potassium iodide]","Log Reduction/mL (3 hr, 20° C., pH = 8)",Bacillus subtilis spores [1]; 20° C.,0
